The source of these data is paper PMC8592951, “9-Methyl-β-carboline inhibits monoamine oxidase activity and stimulates the expression of neurotrophic factors by astrocytes” (Journal of Neural Transmission, 2020).

The target of one test is T1, MAO-A (Homo sapiens, UniProt P21397).
T1 construct: gene MAOA
T1 sequence (P21397 1-527): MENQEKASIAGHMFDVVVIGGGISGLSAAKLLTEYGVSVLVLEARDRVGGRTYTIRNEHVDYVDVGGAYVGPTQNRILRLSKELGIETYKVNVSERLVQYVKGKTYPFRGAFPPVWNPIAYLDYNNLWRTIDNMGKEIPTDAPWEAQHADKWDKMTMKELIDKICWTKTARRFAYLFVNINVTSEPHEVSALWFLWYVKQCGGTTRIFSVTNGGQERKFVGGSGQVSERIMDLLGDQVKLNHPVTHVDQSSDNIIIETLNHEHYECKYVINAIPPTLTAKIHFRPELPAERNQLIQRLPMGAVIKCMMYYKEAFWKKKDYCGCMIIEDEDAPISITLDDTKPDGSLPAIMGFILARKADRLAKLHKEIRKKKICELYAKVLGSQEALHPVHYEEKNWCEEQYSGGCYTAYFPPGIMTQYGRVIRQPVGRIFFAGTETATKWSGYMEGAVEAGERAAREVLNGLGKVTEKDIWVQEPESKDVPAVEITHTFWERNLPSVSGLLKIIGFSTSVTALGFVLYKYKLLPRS
The test can be described thus: MAO-Glo luminescence enzyme activity assay. It is filed as biochemical.

The target in a further test is T2, MAO-B (Homo sapiens, UniProt P27338).
T2 construct: gene MAOB
T2 sequence (P27338 2-520): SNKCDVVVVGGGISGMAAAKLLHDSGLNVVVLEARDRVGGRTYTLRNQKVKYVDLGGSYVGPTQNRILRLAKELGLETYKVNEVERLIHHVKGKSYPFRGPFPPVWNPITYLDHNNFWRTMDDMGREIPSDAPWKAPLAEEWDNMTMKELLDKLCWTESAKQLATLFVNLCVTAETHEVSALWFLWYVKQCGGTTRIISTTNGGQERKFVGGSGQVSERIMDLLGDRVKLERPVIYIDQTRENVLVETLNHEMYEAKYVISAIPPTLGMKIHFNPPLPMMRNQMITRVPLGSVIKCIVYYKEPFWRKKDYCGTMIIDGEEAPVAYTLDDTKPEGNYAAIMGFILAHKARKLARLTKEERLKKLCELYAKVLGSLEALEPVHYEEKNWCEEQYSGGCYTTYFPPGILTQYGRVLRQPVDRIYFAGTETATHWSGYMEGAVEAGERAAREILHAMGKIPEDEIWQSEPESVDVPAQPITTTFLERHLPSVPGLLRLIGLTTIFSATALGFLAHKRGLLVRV
The test can be described thus: MAO-Glo luminescence enzyme activity assay with purchased human MAO-B. It is filed as biochemical.

As a reminder, the IC50 is the concentration needed to halve the response being measured. A low value points to higher potency. Consider `Cn1c2ccccc2c2ccncc21` [9-methyl-β-carboline], for which the results for the half-maximal inhibitory concentration (IC50) at MAO-A and against MAO-B were 1 µM and 15.5 µM, respectively.
